Key:
[1] = Intrinsic clearance in human liver microsomes; type: ADME, Microsome
[2] = Intrinsic clearance in rat liver microsomes; type: ADME, Microsome

CCN(CC)C(=O)c1ccc(N(c2cccc(O)c2)C2CCN(Cc3ccccc3)CC2)cc1
microsomal CLint [1]: 286 µL/min/mg
microsomal CLint [2]: 384 µL/min/mg

CCN(CC)C(=O)c1ccc(N(c2cccc(NC(C)=O)c2)C2CCN(Cc3ccccc3)CC2)cc1
microsomal CLint [1]: 139 µL/min/mg

CCN(CC)C(=O)c1ccc(N(c2cccc(NC(=O)OC)c2)C2CCN(Cc3ccccc3)CC2)cc1
microsomal CLint [1]: 200 µL/min/mg

CCN(CC)C(=O)c1ccc(N(c2cccc(C(N)=O)c2)C2CCN(Cc3ccccc3)CC2)cc1
microsomal CLint [1]: 71 µL/min/mg
microsomal CLint [2]: 62 µL/min/mg

CCN(CC)C(=O)c1ccc(N(c2cccc(NS(C)(=O)=O)c2)C2CCN(Cc3ccccc3)CC2)cc1
microsomal CLint [1]: 96 µL/min/mg

Reference: ChEMBL document CHEMBL1154594, “Delta agonist hydroxy bioisosteres: the discovery of 3-((1-benzylpiperidin-4-yl){4-[(diethylamino)carbonyl]phenyl}amino)benzamide with improved delta agonist activity and in vitro metabolic stability” (Bioorg Med Chem Lett, 2009)
